Reference: ChEMBL document CHEMBL1152309, “Isolation of 2-pyridone alkaloids from a New Zealand marine-derived penicillium species” (J Nat Prod, 2009)
≈ marks a conversion by molar mass, not a printed value.

Key:
Bacillus subtilis = assay: Antibacterial activity against Bacillus subtilis at 30 ug/disk by disc-diffusion assay; type: functional; settings: read-out: IZ
Candida albicans = assay: Antifungal activity against Candida albicans at 30 ug/disk by disc-diffusion assay; type: functional; settings: read-out: IZ
P388 = assay: Cytotoxicity against mouse P388 cells; type: functional, cell-based

| SMILES | zone of inhibition at 30 µg/disc (Bacillus subtilis) | zone of inhibition at 30 µg/disc (Candida albicans) | IC50 (P388) |
| --- | --- | --- | --- |
| C[C@@H]1C[C@H](C)[C@H]2c3c(ccn(O)c3=O)O[C@H](C)[C@@]2(C)C1 | 8 mm | 11 mm | 1.8 µg/mL (≈ 6.49 µM) |
| C[C@@H]1C[C@H](C)[C@H]2c3c(cc[nH]c3=O)O[C@H](C)[C@@]2(C)C1 | – | – | > 12.5 µg/mL |
| C[C@@H]1C[C@H](C)[C@@H](c2c(O)cc[nH]c2=O)[C@H](C)[C@@](C)(O)C1 [DEOXYAKANTHOMYCIN] | – | – | > 12.5 µg/mL |
